Test results published in patent US8772480B2, “Inhibitors of PI3 kinase and/or mTOR” (priority 2009, dated 2014).
Where two headings read alike, the source gives them in different places.

Assays:
[1] = molecular target: PI3Kα (Homo sapiens (Human), UniProt P42336); conditions: read-out: PI3Kα AlphaScreen ® Ki
[2] = system: phosphorylation of Akt at Serine 473 in U87 MG cells; assay: cells; conditions: Homo sapiens, U-87 MG, 2 h
[3] = read-out: U87Cell IC50, pAkt (Ser 473), U87 MG cells, two hours with compound

Chain of PI3Kα (P42336 whole entry): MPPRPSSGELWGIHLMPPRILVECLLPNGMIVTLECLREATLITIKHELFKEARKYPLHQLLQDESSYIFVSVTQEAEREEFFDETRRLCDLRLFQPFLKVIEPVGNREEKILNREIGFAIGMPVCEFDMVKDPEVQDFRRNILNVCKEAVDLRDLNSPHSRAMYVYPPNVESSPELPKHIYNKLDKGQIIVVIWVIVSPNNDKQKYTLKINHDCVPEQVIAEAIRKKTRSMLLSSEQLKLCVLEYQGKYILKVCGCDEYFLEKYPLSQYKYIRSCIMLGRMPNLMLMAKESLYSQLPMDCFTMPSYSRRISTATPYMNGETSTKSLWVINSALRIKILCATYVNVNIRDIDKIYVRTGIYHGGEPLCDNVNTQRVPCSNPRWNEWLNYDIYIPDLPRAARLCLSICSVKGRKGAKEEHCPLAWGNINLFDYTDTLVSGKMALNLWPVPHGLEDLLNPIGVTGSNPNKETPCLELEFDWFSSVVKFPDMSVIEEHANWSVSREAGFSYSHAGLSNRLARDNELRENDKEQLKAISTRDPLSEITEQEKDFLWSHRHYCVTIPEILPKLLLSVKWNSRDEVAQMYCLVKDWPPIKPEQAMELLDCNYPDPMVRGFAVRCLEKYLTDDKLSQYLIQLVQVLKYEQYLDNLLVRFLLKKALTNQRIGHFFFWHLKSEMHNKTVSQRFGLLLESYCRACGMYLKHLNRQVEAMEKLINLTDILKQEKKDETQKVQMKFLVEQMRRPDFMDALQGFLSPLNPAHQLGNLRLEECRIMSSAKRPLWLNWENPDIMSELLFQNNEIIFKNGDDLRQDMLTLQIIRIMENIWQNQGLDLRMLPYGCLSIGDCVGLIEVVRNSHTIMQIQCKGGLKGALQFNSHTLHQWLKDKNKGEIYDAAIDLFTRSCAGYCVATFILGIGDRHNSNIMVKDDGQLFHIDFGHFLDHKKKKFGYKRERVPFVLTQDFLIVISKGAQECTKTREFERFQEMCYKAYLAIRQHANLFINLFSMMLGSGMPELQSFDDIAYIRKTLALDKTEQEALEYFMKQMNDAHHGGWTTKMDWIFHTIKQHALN
Chain of PI3Kα (P27986 whole entry partner): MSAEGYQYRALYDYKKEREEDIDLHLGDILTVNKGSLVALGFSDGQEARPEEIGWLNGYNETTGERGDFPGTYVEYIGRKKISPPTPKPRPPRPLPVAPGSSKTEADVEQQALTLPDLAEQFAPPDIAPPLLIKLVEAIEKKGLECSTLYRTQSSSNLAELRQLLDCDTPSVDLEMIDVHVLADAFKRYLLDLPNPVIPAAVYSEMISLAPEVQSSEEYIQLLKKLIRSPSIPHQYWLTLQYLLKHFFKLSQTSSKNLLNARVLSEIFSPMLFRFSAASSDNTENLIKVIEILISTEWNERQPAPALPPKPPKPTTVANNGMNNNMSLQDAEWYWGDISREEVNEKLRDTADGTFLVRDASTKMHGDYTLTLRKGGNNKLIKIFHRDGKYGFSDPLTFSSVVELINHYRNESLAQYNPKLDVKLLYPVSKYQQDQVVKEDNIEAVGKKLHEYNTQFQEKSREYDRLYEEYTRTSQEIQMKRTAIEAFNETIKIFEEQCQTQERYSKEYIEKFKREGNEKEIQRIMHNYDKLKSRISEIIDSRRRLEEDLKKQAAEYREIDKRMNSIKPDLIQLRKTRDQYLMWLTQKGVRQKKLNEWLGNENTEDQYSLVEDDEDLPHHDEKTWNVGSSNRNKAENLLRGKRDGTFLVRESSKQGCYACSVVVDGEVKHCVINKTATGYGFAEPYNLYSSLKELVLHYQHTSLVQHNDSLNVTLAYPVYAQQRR

| Ki [1] [nM] | IC50 [2, 3] [nM] | SMILES | IC50 ([2]; read-out: U87Cell IC50) [nM] |
| --- | --- | --- | --- |
| 147 | 124 | COc1ccc(Nc2ncc(CN3CC[S+]([O-])CC3)cc2-c2nc(C)nc(N)n2)cn1 [Example 202, 4-(2-(6-Methoxypyridin-3-Ylamino)-5-(1-Sulfoxidemorpholinomethyl)Pyridin-3-yl)-6-Methyl-1,3,5-Triazin-2-Amine] | – |
| 5 | 7 | COc1ncc(Nc2ncc(CN3CCN(S(C)(=O)=O)[C@H](C)C3)cc2-c2nc(C)nc(N)n2)cc1F [Example 364, (R)-4-(2-(5-Fluoro-6-Methoxypyridin-3-Ylamino)-5-((3-Methyl-4-(Methylsulfonyl)Piperazin-1-yl)Methyl)Pyridin-3-yl)-6-Methyl-1,3,5-Triazin-2-Amine] | – |
| 24 | 45 | Cc1nc(N)nc(-c2cc(C(C)N3CCN(S(C)(=O)=O)CC3)cnc2Nc2ccc3scnc3c2)n1 (stereo not drawn) [Example 290, N-(3-(4-Amino-6-Methyl-1,3,5-Triazin-2-yl)-5-(1-(4-(Methylsulfonyl)Piperazin-1-yl)Ethyl)Pyridin-2-yl)Benzo[D]Thiazol-5-Amine] | – |
| 19 | 7 | COc1cc(Nc2ncc(C(C)(C)O)cc2-c2nc(C)nc(N)n2)cnc1OC [Example 350, 2-(5-(4-Amino-6-Methyl-1,3,5-Triazin-2-yl)-6-(5,6-Dimethoxypyridin-3-Ylamino)Pyridin-3-yl)Propan-2-ol] | – |
| 34 | 46 | COc1ccc(Nc2ncc([C@H](O)C(F)(F)F)cc2-c2nc(C)nc(N)n2)cn1 [Example 323, (S)-1-(5-(4-amino-6-methyl-1,3,5-triazin-2-yl)-6-(6-methoxypyridin-3-ylamino)pyridin-3-yl)-2,2,2-trifluoroethanol] | – |
| 45 | 245 | COc1ccc(Nc2nc3ccccc3cc2-c2nc(C)nc(N)n2)cn1 [Example 238, 3-(4-Amino-6-Methyl-1,3,5-Triazin-2-yl)-N-(6-Methoxypyridin-3-yl)Quinolin-2-Amine] | – |
| 12 | 90 | COc1ncc(Nc2ncc(C(C)N3CCN(C(=O)N(C)C)CC3)cc2-c2nc(C)nc(N)n2)cc1F (stereo not drawn) [Example 294, 4-(1-(5-(4-Amino-6-Methyl-1,3,5-Triazin-2-yl)-6-(5-Fluoro-6-Methoxypyridin-3-Ylamino)Pyridin-3-yl)Ethyl)-N,N-Dimethylpiperazine-1-Carboxamide] | – |
| 9 | 70 | COc1ncc(Nc2ncc(C(OC(=O)c3cccc(Cl)c3)C(C)(C)O)cc2-c2nc(C)nc(N)n2)cc1F (stereo not drawn) [Example 351, 1-(5-(4-Amino-6-Methyl-1,3,5-Triazin-2-yl)-6-(5-Fluoro-6-Methoxypyridin-3-Ylamino)Pyridin-3-yl)-2-Hydroxy-2-Methylpropyl 3-Chlorobenzoate] | – |
| 60 | 151 | COc1ccc(Nc2ncc(-c3ccnnc3)cc2-c2nc(C)nc(N)n2)cn1 [Example 252, 4-(2-(6-Methoxypyridin-3-Ylamino)-5-(Pyridazin-4-yl)Pyridin-3-yl)-6-Methyl-1,3,5-Triazin-2-Amine] | – |
| 16 | 562 | Cc1nc(N)nc(-c2cc(CN3CCN(S(C)(=O)=O)CC3)cnc2Nc2cnc3c(c2)ncn3C)n1 [Example 203, N-(3-(4-Amino-6-Methyl-1,3,5-Triazin-2-yl)-5-((4-(Methylsulfonyl)Piperazin-1-yl)Methyl)Pyridin-2-yl)-3-Methyl-3H-Imidazo[4,5-B]Pyridin-6-Amine] | – |
| 3 | 6 | COc1ncc(Nc2ncc([C@@H](C)N3CCN(S(C)(=O)=O)C[C@@H]3C)cc2-c2nc(C)nc3[nH]cnc23)cc1F [Example 295, N-(5-Fluoro-6-Methoxypyridin-3-yl)-5-((R)-1-((S)-2-Methyl-4-(Methylsulfonyl)Piperazin-1-yl)Ethyl)-3-(2-Methyl-9H-Purin-6-yl)Pyridin-2-Amine] | – |
| 21 | 52 | COc1ncc(Nc2ncc(CN3CCN(S(C)(=O)=O)C[C@@H]3C)cc2-c2nc(C)nc(N)n2)cn1 [Example 319, (S)-4-(2-(2-Methoxypyrimidin-5-Ylamino)-5-((2-Methyl-4-(Methylsulfonyl)Piperazin-1-yl)Methyl)Pyridin-3-yl)-6-Methyl-1,3,5-Triazin-2-Amine] | – |
| 39 | 78 | COc1ccc(Nc2ncc(CN3CC(NS(C)(=O)=O)C3)cc2-c2nc(C)nc(N)n2)cn1 [Example 232, N-(1-((5-(4-Amino-6-Methyl-1,3,5-Triazin-2-yl)-6-(6-Methoxypyridin-3-Ylamino)Pyridin-3-yl)Methyl)Azetidin-3-yl)Methanesulfonamide] | – |
| 59 | 13 | COc1ncc(Nc2ncc(C(C)O)cc2-c2nc(C)nc(N)n2)cc1F (stereo not drawn) [Example 349, 1-(5-(4-Amino-6-Methyl-1,3,5-Triazin-2-yl)-6-(5-Fluoro-6-Methoxypyridin-3-Ylamino)Pyridin-3-yl)Ethanol] | – |
| 11 | 111 | COc1ccc(Nc2ncc(C(C)N3CCN(S(C)(=O)=O)CC3)nc2-c2cc(N)nc(C)n2)cn1 (stereo not drawn) [Example 286, 6-(3-(6-Methoxypyridin-3-Ylamino)-6-(1-(4-(Methylsulfonyl)Piperazin-1-yl)Ethyl)Pyrazin-2-yl)-2-Methylpyrimidin-4-Amine] | – |
| 24 | 203 | COc1ncc(Nc2ncc([C@@H](C)N3CCN(S(C)(=O)=O)CC3)cc2-c2nc(C)nc(N)n2)cc1C(C)C [Example 302, (R)-4-(2-(5-Isopropyl-6-Methoxypyridin-3-Ylamino)-5-(1-(4-(Methylsulfonyl)Piperazin-1-yl)Ethyl)Pyridin-3-yl)-6-Methyl-1,3,5-Triazin-2-Amine] | – |
| 7 | 26 | COc1ccc(Nc2ncc(C3(N4CCN(S(C)(=O)=O)CC4)CC3)cc2-c2nc(C)nc(N)n2)cn1 [Example 282, 4-(2-(6-Methoxypyridin-3-Ylamino)-5-(1-(4-(Methylsulfonyl)Piperazin-1-yl)Cyclopropyl)Pyridin-3-yl)-6-Methyl-1,3,5-Triazin-2-Amine] | – |
| 426 | > 10000 | Cc1nc(N)nc(-c2cc(Cl)cnc2Nc2cncc(F)c2)n1 [Example 257, 4-(5-Chloro-2-(5-Fluoropyridin-3-Ylamino)Pyridin-3-yl)-6-Methyl-1,3,5-Triazin-2-Amine] | – |

More lines, now with the values behind:

| SMILES | Ki [1] [nM] | IC50 [2, 3] [nM] | IC50 ([2]; read-out: U87Cell IC50) [nM] |
| --- | --- | --- | --- |
| Cc1nc(N)nc(-c2cccnc2Nc2ccc3c(c2)OC(F)(F)O3)n1 [Example 168, 4-(2-(2,2-Difluorobenzo[D][1,3]Dioxol-5-Ylamino)Pyridin-3-yl)-6-Methyl-1,3,5-Triazin-2-Amine] | 610 | > 10000 | – |
| Cc1nc(N)cc(-c2nccnc2Nc2cccc3[nH]ncc23)n1 [Example 112, N-(3-(6-amino-2-methylpyrimidin-4-yl)pyrazin-2-yl)-1H-indazol-4-amine] | 98 | 450 | – |
| Cc1nc(-c2cc(C(C)N3CCOCC3)cnc2Nc2cnc(Cl)c(NS(C)(=O)=O)c2)c2nc[nH]c2n1 (stereo not drawn) [Example 339, N-(2-Chloro-5-(3-(2-Methyl-9H-Purin-6-yl)-5-(1-Morpholinoethyl)Pyridin-2-Ylamino)Pyridin-3-yl)Methanesulfonamide] | 3 | 45 | – |
| CC(=O)Nc1ccc(Nc2ncccc2-c2nc(C)nc3[nH]cnc23)cc1Cl [Example 181, N-(2-Chloro-4-(3-(2-Methyl-9H-Purin-6-yl)Pyridin-2-Ylamino)Phenyl)Acetamide] | 754 | 562 | – |
| Cc1nc(N)nc(-c2cccnc2Nc2ccc(Cl)nc2)n1 [Example 54, 4-(2-(6-Chloropyridin-3-Ylamino)Pyridin-3-yl)-6-Methyl-1,3,5-Triazin-2-Amine] | 160 | 674 | – |
| COc1ccc(Nc2ncc(CNCc3ccccn3)cc2-c2nc(C)nc3[nH]cnc23)cn1 [Example 136, N-(6-methoxypyridin-3-yl)-3-(2-methyl-9H-purin-6-yl)-5-((pyridin-2-ylmethylamino)methyl)pyridin-2-amine] | 54 | 124 | – |
| COc1ncc(Nc2nc(CN3CCOCC3)ccc2-c2nc(C)nc(N)n2)cc1F [Example 198, 4-(2-(5-Fluoro-6-Methoxypyridin-3-Ylamino)-6-(Morpholinomethyl)Pyridin-3-yl)-6-Methyl-1,3,5-Triazin-2-Amine] | 276 | 219 | – |
| COc1ccc(Nc2nc(-c3ccc(F)cc3)ncc2-c2nc(C)nc(N)n2)cn1 [Example 125, 4-(2-(4-fluorophenyl)-4-(6-methoxypyridin-3-ylamino)pyrimidin-5-yl)-6-methyl-1,3,5-triazin-2-amine] | 504 | > 10000 | – |
| COc1ccc(Nc2ncc(CNc3cccnn3)cc2-c2nc(C)nc3[nH]cnc23)cn1 [Example 80, N-((6-(6-methoxypyridin-3-ylamino)-5-(2-methyl-9H-purin-6-yl)pyridin-3-yl)methyl)pyridazin-3-amine] | 33 | 305 | – |
| COc1ccc(Nc2ncc(C(C)c3ccc(S(C)(=O)=O)cc3)cc2-c2nc(C)nc(N)n2)cn1 (stereo not drawn) [Example 149, 4-(2-(6-Methoxypyridin-3-Ylamino)-5-(1-(4-(Methylsulfonyl)Phenyl)Ethyl)Pyridin-3-yl)-6-Methyl-1,3,5-Triazin-2-Amine] | 5 | 53 | – |
| Cc1nc(N)nc(-c2cc(CN3CCOCC3)cnc2Nc2ccc3scnc3c2)n1 [Example 129, N-(3-(4-amino-6-methyl-1,3,5-triazin-2-yl)-5-(morpholinomethyl)pyridin-2-yl)benzo[d]thiazol-5-amine] | 100 | 83 | – |
| COc1ccc(Nc2ncc(C(C)N3CC(S(C)(=O)=O)C3)cc2-c2nc(C)nc(N)n2)cn1 (stereo not drawn) [Example 308, 4-(2-(6-methoxypyridin-3-ylamino)-5-(1-(3-(methylsulfonyl)azetidin-1-yl)ethyl)pyridin-3-yl)-6-methyl-1,3,5-triazin-2-amine 2,2,2-trifluoroacetate] | 19 | – | 60 |
